Assay [1] relates to protein leaked from the dural blood vessel caused by 5-HT. Description: Preventive effect in guinea pig migraine model (leaked protein). The assay is classed as in vivo. The note with it: for leakage of the protein: 10 mg/kg or 30 mg/kg of oral administration. On the procedure: (4) Preventive Effect in Guinea Pig Migraine Model
In this test system, migraine preventive effect was evaluated by measuring this leaked protein in the presence of a compound to be tested, and this was carried out by partially modifying the method described in Rachel A. Spokes and Vicki C. Middlefell, European Journal of Pharmacology (1995) 281, 75-79.
Hartley male guinea pig (250-350 g) was anesthetized by peritoneal administration (i.p.) of urethane (1.5 g/kg). By applying simple canulation to a saphena, 50 mg/kg of a fluorescent protein (FITC-BSA) was intravenously administered (i.v.) and 5 minutes thereafter, physiological saline or 1 μM of 5-HT was intravenously administered. By carrying out perfusion with physiological saline 15 minutes thereafter, blood was washed out. […] By detaching the skull, dura mater was took out and incubated at 37° C. for 16 hours in an Eppendorf tube in the presence of physiological saline of pH 11. Centrifugation was carried out, and the supernatant was dispensed into a plate. Fluorescence intensity was measured using a fluorescence plate reader (excitation wavelength 485 nm, […] 530 nm). By measuring dura mater weight, fluorescence intensity per mg dural protein was calculated.
Values of the fluorescence intensity measured at the time of the administration of each compound and at the time of no administration are shown in FIG. 1 to FIG. 4. […] The control indicates fluorescence intensity at the time of no addition of 5-HT, namely the reference value.

Assay [2] addresses human 5-HT7 receptor (Homo sapiens, UniProt P34969). Description: Binding test of 5-HT7 receptor. The note with it: [3H]5-HT, human 5-HT7 expressing CHO cell membrane. Here is the method: (2) Binding Test of 5-HT7 Receptor
(i) Preparation of Membrane Preparation
CHO cell was used as the gene transferring cell.
Cultured CHO cells expressing human 5-HT7 receptor were washed with PBS (−). The cells were scraped in the presence of PBS(−), and the cells were recovered by centrifugation (1,000 rpm, 10 min, 4° C.). They were homogenized using Polytron (PTA 10-TS) in the presence of 5 mM Tris-HCl (pH 7.4) buffer and centrifuged (40,000×g, 10 min, 4° C.). They were suspended using a homogenizer in the presence of 50 mM Tris-HCl (pH 7.4) buffer. They were subjected to centrifugation (40,000×g, 10 min, 4° C.), suspended in 50 mM Tris-HCl (pH 7.4) and stored at −80° C.
(ii) Receptor Binding Test
The compound was dissolved in 100% DMSO and diluted to respective concentrations. Nonspecific binding was defined as the binding quantity in the presence of 10 μM metergoline, and the result of subtracting the nonspecific binding quantity from the total binding quantity was defined as the specific binding quantity. This was mixed with 4 ml of 50 mM Tris-HCl buffer (pH 7.4) and filtered under a reduced pressure using a GF/B glass filter, and the filter was washed (4 ml×3) with the same buffer. The glass filter was soaked in 5 ml of a liquid scintillator (Aquasol-2) and the radioactivity was measured using a liquid scintillation counter.

Assay [3] deals with 5-HT2B receptor. The note with it: against 5-HT1A, 5-HT1B, 5-HT2A, 5-HT2C, 5-HT3, 5-HT6, 5-HT7, α1, M1 and D2 receptors; cited from earlier work.
Assay [4] deals with 5-HT4 receptor (UniProt O70528). Description: Affinity for other receptors: 5-HT4. The class given is binding.
Assay [5] addresses 5-HT6 receptor (UniProt P50406). Description: Affinity for other receptors: 5-HT6. The class given is binding.
The target in assay [6] is α1 receptor. Description: Affinity for other receptors: α1. The assay is classed as binding.

Broadly, the Ki is the equilibrium dissociation constant of an inhibitor or competing ligand from its target. Low values mean tighter binding, high ones weaker binding. Usually IC50 stands for the midpoint of a concentration-inhibition curve. Low values mean greater potency, high ones weaker potency.

Where a name gives a salt, the structure may show the parent alone.

human 5-HT7 receptor, sequence (P34969 1-432 limits assumed): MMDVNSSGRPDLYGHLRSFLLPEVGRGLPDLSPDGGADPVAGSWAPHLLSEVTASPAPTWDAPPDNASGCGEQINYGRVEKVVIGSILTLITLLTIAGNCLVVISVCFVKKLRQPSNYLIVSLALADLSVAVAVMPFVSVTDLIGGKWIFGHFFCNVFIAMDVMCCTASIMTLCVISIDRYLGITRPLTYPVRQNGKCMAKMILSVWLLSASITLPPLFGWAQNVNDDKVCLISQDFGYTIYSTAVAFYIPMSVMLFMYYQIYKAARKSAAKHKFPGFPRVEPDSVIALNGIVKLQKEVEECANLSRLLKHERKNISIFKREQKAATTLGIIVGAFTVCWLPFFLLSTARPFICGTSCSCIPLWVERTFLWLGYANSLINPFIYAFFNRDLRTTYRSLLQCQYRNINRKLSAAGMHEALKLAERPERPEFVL

`NC(N)=NC(=O)c1ccc2c(c1)C1(SCCS1)c1ccccc1-2` [Example 59]: the “leakage of the protein” value in assay [1] is reported as “almost completely suppressed leakage of the protein”.
On to `NC(N)=NC(=O)c1ccc2c(c1)C1(CCCO1)c1ccccc1-2` (single isomer, unassigned) [Example 60a, N-(diaminomethylene)-4′,5′-dihydro-3′H-spiro[fluorene-9,2′-furan]-2-carboxamide (optically active substance A)], for which, in assay [1], the “leakage of the protein” value was “almost completely suppressed leakage of the protein”.
In assay [2], `NC(N)=NC(=O)c1ccc2c(c1)C1(CC1)c1ccccc1-2` [Example 63, N-(diaminomethylene)spiro[cyclopropane-1,9′-fluorene]-2′-carboxamide] had a Ki of 0.4 to 310 nM.
For the molecule `CC1(O)c2ccccc2-c2ccc(C(=O)N=C(N)N)cc21` (single isomer, unassigned) [Example 56a, N-(diaminomethylene)-9-hydroxy-9-methyl-9H-fluorene-2-carboxamide (optically active substance A)], in assay [2], the Ki was 0.4 to 310 nM. Further, the “leakage of the protein” value in assay [1] was “almost completely suppressed leakage of the protein”.
`CC(C)c1cc(-c2ccc(F)c3ccccc23)nc(N)n1` [RS-127445, 2-amino-4-(4-fluoronaphth-1-yl)-6-isopropylpyrimidine, reference compound]: in assay [1] (3 mg/kg, intraperitoneal, FIG. 1), the “amount of the leaked protein” value is given as “showed an effect to reduce amount of the leaked protein”. The “amount of the leaked protein versus reference value” in assay [1] (dose increased from 3 mg/kg to 10 mg/kg, intraperitoneal, FIG. 1) is given as “did not reduced to the reference value”. Moreover, the 5-HT2B receptor selectivity in assay [3] is on record as 1000 times.
On to `Cl.NC(N)=NC(=O)c1ccc2c(c1)C(O)c1ccccc1-2` (stereo not shown) [Example 3, N-(diaminomethylene)-9-hydroxy-9H-fluorene-2-carboxamide hydrochloride], for which the IC50 in assay [4], in assay [5] and in assay [6] was at least 1000 nM in each case. Further, in assay [1] (3 mg/kg of intraperitoneal administration, FIG. 4), the “amount of the leaked protein” value is recorded as “almost completely suppressed the amount of leaked protein”.
`CC1(O)c2cc(C(=O)N=C(N)N)ccc2-c2c(F)cccc21` (single isomer, unassigned) [Example 78b, N-(diaminomethylene)-5-fluoro-9-hydroxy-9-methyl-9H-fluorene-2-carboxamide (optically active substance B)]: the “leakage of the protein” value in assay [1] was “almost completely suppressed leakage of the protein”.
Turning to `NC(N)=NC(=O)c1ccc2c(c1)C1(CCCO1)c1ccccc1-2` (single isomer, unassigned) [Example 60b, N-(diaminomethylene)-4′,5′-dihydro-3′H-spiro[fluorene-9,2′-furan]-2-carboxamide (optically active substance B)], in assay [1], the “leakage of the protein” value was “almost completely suppressed leakage of the protein”.
`CC1(O)c2cc(C(=O)N=C(N)N)ccc2-c2c(F)cccc21` (single isomer, unassigned) [Example 78a, N-(diaminomethylene)-5-fluoro-9-hydroxy-9-methyl-9H-fluorene-2-carboxamide (optically active substance A)] came in with a Ki in assay [2] of 0.4 to 310 nM.
Regarding `CC(C)C1NC(=NC(=O)c2ccc3c(c2)C(O)c2ccccc2-3)NC1=O` [Example 8, 9-hydroxy-N-[(2EZ,4S)-4-isopropyl-5-oxoimidazolin-2-ylidene-9H-fluorene-2-carboxamide hydrochloride], in assay [2], the Ki is 0.4 to 310 nM.
`CC1CCN(CC[C@H]2CCCN2S(=O)(=O)c2cccc(O)c2)CC1` [SB-269970, (R)-3-(2-(2-(4-methylpiperidin-1-yl)ethyl)pyrrolidine-1-sulfonyl)phenol, reference compound]: the “amount of the leaked protein versus reference value” in assay [1] (dose increased from 3 mg/kg to 30 mg/kg, intraperitoneal, FIG. 2) was “did not reduced the amount of leaked protein to the reference value”. Besides, in assay [1] (from 10 mg/kg, intraperitoneal, FIG. 2), the “amount of the leaked protein” value was “showed the effect”.
With `NC(N)=NC(=O)c1ccc2c(c1)C(O)c1c(Cl)cccc1-2` (stereo not shown) [Example 38, 8-chloro-N-(diaminomethylene)-9-hydroxy-9H-fluorene-2-carboxamide], the Ki in assay [2] was 0.4 to 310 nM.
Same read-out and setting: the result for `CC1(O)c2ccccc2-c2ccc(C(=O)N=C(N)N)cc21` (racemic) [Example 56, N-(diaminomethylene)-9-hydroxy-9-methyl-9H-fluorene-2-carboxamide] reads 0.4 to 310 nM; that for `COC1(C)c2ccccc2-c2ccc(C(=O)N=C(N)N)cc21` (stereo not shown) [Example 71, N-(diaminomethylene)-9-methoxy-9-methyl-9H-fluorene-2-carboxamide], 0.4 to 310 nM.
For the molecule `NC(N)=NC(=O)c1ccc2c(c1)C1(SCCS1)c1cccc(F)c1-2` [Example 85], the “leakage of the protein” value in assay [1] is reported as “almost completely suppressed leakage of the protein”.
The molecule `COC1(C)c2cc(C(=O)N=C(N)N)ccc2-c2c(F)cccc21` (stereo not shown) [Example 87, N-(diaminomethylene)-5-fluoro-9-methoxy-9-methyl-9H-fluorene-2-carboxamide] came in with a Ki in assay [2] of 0.4 to 310 nM.
For `CC1(O)c2cc(C(=O)N=C(N)N)ccc2-c2c(F)cccc21` (racemic) [Example 77, N-(diaminomethylene)-5-fluoro-9-hydroxy-9-methyl-9H-fluorene-2-carboxamide], in assay [2], the Ki is 0.4 to 310 nM.
In assay [2], `CCC1(OC)c2ccccc2-c2ccc(C(=O)N=C(N)N)cc21` (stereo not shown) [Example 72, N-(diaminomethylene)-9-ethyl-9-methoxy-9H-fluorene-2-carboxamide] gave a Ki of 0.4 to 310 nM.

Source of the values: US20080200551A1, “Flourene Derivative” (priority 2004, published 2008).
